Read-outs that look alike come from different tables or passages of the source.
Legend:
Pyricularia oryzae = type: cell-based
Plasmopara viticola [1] = assay: Use Example 1: peronospora of grapevines, greenhouse, 7 days of protective application; type: in vivo; settings: grapevine leaves sprayed 7 days before inoculation
Experimental: The active compounds were prepared jointly or separately as a stock solution with 25 mg of active compound which was made up to 10 ml using a mixture of acetone and/or DMSO and the emulsifier Uniperol® EL (wetting agent having emulsifying and dispersing action based on ethoxylated alkylphenols) in a volume ratio of solvent/emulsifier of 99 to 1. The mixture was then made up with water to 100 ml. This stock solution was diluted with the solvent/emulsifier/water mixture described to the concentration of active compounds stated below.
The active compounds pyraclostrobin, famoxadone, fluazinam and zoxamide were used as commercially available formulations.
The visually determined percentages of infected leaf areas were converted into efficacies in % of the untreated control:
The efficacy (E) is calculated as follows using Abbot's formula:
An efficacy of 0 means that the infection level of the treated plants corresponds to that of the untreated control plants; an efficacy of 100 means that the treated plants were not infected.
The expected efficacies of mixtures of active compounds were determined using Colby's formula (Colby, S. R. “Calculating synergistic and antagonistic responses of herbicide combinations”, Weeds, 15, 20-22, 1967) and compared with the observed efficacies.
E=x+y−x·y/100 • E expected efficacy, expressed in % of the untreated control, when using the mixture of the active compounds A and B at the concentrations a and b • x efficacy, expressed in % of the untreated control, when using the active compound A at the concentration a • y efficacy, expressed in % of the untreated control, when using the active compound B at the concentration b
Effectiveness Against Peronospora of Grapevines Caused by Plasmopara viticola at 7 days of Protective Application
Leaves of potted vines were sprayed to runoff point with an aqueous suspension having the concentration of active compound given below. To be able to assess the persistency of the substances, the plants were, after the spray coating had dried on, placed in a greenhouse for 7 days. Only then were the leaves inoculated with an aqueous zoospore suspension of Plasmopara viticola. The grapevines were then initially placed in a water-vapor-saturated chamber at 24° C. for 48 hours and then in a greenhouse at temperatures between 20 and 30° C. for 5 days. After this period of time the plants were, to promote sporangiophore eruption, again placed in a humid chamber for 16 hours. The extent of the development of the infection on the undersides of the leaves was then determined visually.

Phytophthora infestans = type: in vivo; settings: tomato leaves sprayed 3 days before inoculation, rated after 6 days
Botrytis cinerea = assay: Use Example 4: gray mold, microtiter test; type: cell-based; settings: day 7 after inoculation, 405 nm
Septoria tritici = assay: Use Example 6: Septoria speckled leaf blotch, microtiter test; type: cell-based; settings: day 7 after inoculation, 405 nm
Plasmopara viticola [2] = type: in vivo

In the case of `CC1(c2ccc(Oc3ccccc3)cc2)OC(=O)N(Nc2ccccc2)C1=O` (racemic) [famoxadone II-11, (RS)-3-anilino-5-methyl-5-(4-phenoxyphenyl)-1,3-oxazolidine-2,4-dione], the “Observed effect (%)” value (Pyricularia oryzae; 0.5 ppm) is reported as 64%.

`CCNC(=O)NC(=O)/C(C#N)=N/OC` [cymoxanil II-3, cymoxanil] was tested, and the “Observed effect (%)” value (Plasmopara viticola [1]; 4 ppm) was 0%.

In the case of `COc1ccc(C(=CC(=O)N2CCOCC2)c2ccc(Cl)cc2)cc1OC` [dimethomorph II-2, 3-(4-chlorophenyl)-3-(3,4-dimethoxyphenyl)-1-morpholin-4-ylpropenone], the “Observed effect (%)” value (Plasmopara viticola [1]; 4 ppm) is reported as 0%, the “Observed effect (%)” value (Phytophthora infestans; 4 ppm) is reported as 0% and the “Observed effect (%)” value (Phytophthora infestans; 16 ppm) is reported as 22%. For the same molecule, the “Observed effect (%)” value (Botrytis cinerea; 63 ppm) was 9% and the “Observed effect (%)” value (Pyricularia oryzae; 4 ppm) was 6%.

In the case of `N#Cc1sc2c(=O)c3ccccc3c(=O)c=2sc1C#N` [dithianon II-15, 5,10-dioxo-5,10-dihydronaphtho[2,3-b][1,4]dithiin-2,3-dicarbonitrile], the “Observed effect (%)” value (Septoria tritici; 0.125 ppm) is reported as 35%.

`CCNc1nc(CC)c(C(=O)NC(C#N)c2cccs2)s1` (centres unmarked) [ethaboxam I, N-(cyano-2-thienylmethyl)-4-ethyl-2-(ethylamino)-5-thiazolecarboxamide] was tested, and the “Observed effect (%)” value (Plasmopara viticola [1]; 1 ppm) was 0%, the “Observed effect (%)” value (Plasmopara viticola [1]; 4 ppm) was 22% and the “Observed effect (%)” value (Plasmopara viticola [1]; 16 ppm) was 44%. For the same molecule, the “Observed effect (%)” value (Plasmopara viticola [2]; 1 ppm) was 61%, the “Observed effect (%)” value (Phytophthora infestans; 16 ppm) was 33% and the “Observed effect (%)” value (Botrytis cinerea; 1 ppm) was 0%. For the same molecule, the “Observed effect (%)” value (Botrytis cinerea; 2 ppm) was 0%, the “Observed effect (%)” value (Botrytis cinerea; 4 ppm) was 0% and the “Observed effect (%)” value (Botrytis cinerea; 32 ppm) was 0%. For the same molecule, the “Observed effect (%)” value (Botrytis cinerea; 63 ppm) was 11%, the “Observed effect (%)” value (Pyricularia oryzae; 0.125 ppm) was 0% and the “Observed effect (%)” value (Pyricularia oryzae; 0.25 ppm) was 0%. For the same molecule, the “Observed effect (%)” value (Pyricularia oryzae; 8 ppm) was 18%, the “Observed effect (%)” value (Pyricularia oryzae; 16 ppm) was 41% and the “Observed effect (%)” value (Pyricularia oryzae; 63 ppm) was 56%. For the same molecule, the “Observed effect (%)” value (Septoria tritici; 0.125 ppm) was 0%, the “Observed effect (%)” value (Septoria tritici; 4 ppm) was 0% and the “Observed effect (%)” value (Septoria tritici; 16 ppm) was 0%.

In the case of `O=[N+]([O-])c1cc(C(F)(F)F)c(Cl)c([N+](=O)[O-])c1Nc1ncc(C(F)(F)F)cc1Cl` [fluazinam II-4, 3-chloro-N-[3-chloro-2,6-dinitro-4-(trifluoromethyl)phenyl]-5-(trifluoromethyl)-2-pyridinamine], the “Observed effect (%)” value (Plasmopara viticola [1]; 63 ppm) is reported as 22%.

In the case of `COc1ccc(C(=CC(=O)N2CCOCC2)c2ccc(F)cc2)cc1OC` [flumorph II-8, 3-(4-fluorophenyl)-3-(3,4-dimethoxyphenyl)-1-morpholin-4-ylpropenone], the “Observed effect (%)” value (Botrytis cinerea; 63 ppm) is reported as 16% and the “Observed effect (%)” value (Pyricularia oryzae; 16 ppm) is reported as 11%.

With `O=C1c2ccccc2C(=O)N1SC(Cl)(Cl)Cl` [folpet II-10, folpet] the “Observed effect (%)” value (Botrytis cinerea; 1 ppm) was 38%, the “Observed effect (%)” value (Pyricularia oryzae; 1 ppm) was 20% and the “Observed effect (%)” value (Septoria tritici; 4 ppm) was 54%.

For `COC(=O)N(OC)c1ccccc1COc1ccn(-c2ccc(Cl)cc2)n1` [pyraclostrobin II-6, methyl N-{2-[1-(4-chlorophenyl)-1H-pyrazol-3-yloxymethyl]phenyl}(N-methoxy)carbamate], the “Observed effect (%)” value (Botrytis cinerea; 0.5 ppm) was 22%.

With “ethyl phosphonate aluminum [fosethyl-Al II-12]” the “Observed effect (%)” value (Pyricularia oryzae) was 8%.

“manganese ethylenebis(dithiocarbamate) [maneb II-5]” was tested, and the “Observed effect (%)” value (Plasmopara viticola [2]; in vivo) was 0%.

With “manganese ethylenebis(dithiocarbamate) zinc complex [mancozeb II-9]” the “Observed effect (%)” value (Botrytis cinerea; 4 ppm) was 30% and the “Observed effect (%)” value (Septoria tritici; 1 ppm) was 29%.

With “zinc ammoniate ethylenebis(dithiocarbamate) [metiram II-14]” the “Observed effect (%)” value (Septoria tritici; 4 ppm) was 19%.
